The source of these data is patent US20090099103A1, “COMBINATIONS OF THERAPEUTIC AGENTS FOR TREATING CANCER” (NOVARTIS AG., priority 2006, published 2009).

This assay concerns A549 cells. Kind of assay: Combination dose-matrix cell viability assay (CellTiter-Blue / alamar blue), A549. In kind it is cell-based. As to conditions: in the presence of increasing concentrations of cladribine. An excerpt:
The inhibition ranges from 0% at the untreated level to 100% when T=0.
This effectively calculates a volume between the measured and Loewe additive response surfaces, weighted towards high inhibition and corrected for varying dilution factors.
On the technique in general: The colour change of resazurin is a common sign of viable cells or microbes.

On to `CCN1CCN(Cc2ccc(-c3cc4c(N[C@H](C)c5ccccc5)ncnc4[nH]3)cc2)CC1` [{6-[4-(4-ethyl-piperazin-1-ylmethyl)-phenyl]-7H-pyrrolo[2,3-d]pyrimidin-4-yl]-((R)-1-phenyl-ethyl)-amine], for which the “change in potency of the Erb-B/VEGF inhibitor” value is listed as “significant increase in the potency”.
